Assays:
[1] = molecular target: LRRK2 (G2019S) (Homo sapiens, UniProt Q5S007, G2019S); assay: scanMAX Kinase panel (DiscoverX), % control; assay type: binding; set-up: purchased DiscoverX; conditions: <35% = active
Protocol: (§1) Specifically, for Examples 162, 160, 105, 217, 205, 96, 207, 184, 206, 221, 238, and 237 selected among the example compounds of the present invention, it was decided to measure enzyme (kinase) selectivity by DiscoverX, and the experiment was conducted using a panel for scanMAX™ Kinase analysis. At this time, the concentration of the drug treated with the enzyme was 1 uM in DMSO, the control percentage (% control) was determined in the same way as in Equation 1 below, and the results were shown in Table 6 below. [formula] Here, the positive control refers to a compound showing a control percentage of 0%, and the negative control is DMSO, indicating a control percentage of 100%. Also, in the enzyme selectivity of the present invention, if the control percentage for each enzyme was <35% (i.e., less than 35%), it was determined to have activity against the relevant enzyme.

[2] = molecular target: T1, TTK (Homo sapiens, UniProt P33981); assay: scanMAX Kinase panel (DiscoverX), % control; assay type: binding; set-up: purchased DiscoverX; conditions: <35% = active
T1 sequence (P33981 1-857): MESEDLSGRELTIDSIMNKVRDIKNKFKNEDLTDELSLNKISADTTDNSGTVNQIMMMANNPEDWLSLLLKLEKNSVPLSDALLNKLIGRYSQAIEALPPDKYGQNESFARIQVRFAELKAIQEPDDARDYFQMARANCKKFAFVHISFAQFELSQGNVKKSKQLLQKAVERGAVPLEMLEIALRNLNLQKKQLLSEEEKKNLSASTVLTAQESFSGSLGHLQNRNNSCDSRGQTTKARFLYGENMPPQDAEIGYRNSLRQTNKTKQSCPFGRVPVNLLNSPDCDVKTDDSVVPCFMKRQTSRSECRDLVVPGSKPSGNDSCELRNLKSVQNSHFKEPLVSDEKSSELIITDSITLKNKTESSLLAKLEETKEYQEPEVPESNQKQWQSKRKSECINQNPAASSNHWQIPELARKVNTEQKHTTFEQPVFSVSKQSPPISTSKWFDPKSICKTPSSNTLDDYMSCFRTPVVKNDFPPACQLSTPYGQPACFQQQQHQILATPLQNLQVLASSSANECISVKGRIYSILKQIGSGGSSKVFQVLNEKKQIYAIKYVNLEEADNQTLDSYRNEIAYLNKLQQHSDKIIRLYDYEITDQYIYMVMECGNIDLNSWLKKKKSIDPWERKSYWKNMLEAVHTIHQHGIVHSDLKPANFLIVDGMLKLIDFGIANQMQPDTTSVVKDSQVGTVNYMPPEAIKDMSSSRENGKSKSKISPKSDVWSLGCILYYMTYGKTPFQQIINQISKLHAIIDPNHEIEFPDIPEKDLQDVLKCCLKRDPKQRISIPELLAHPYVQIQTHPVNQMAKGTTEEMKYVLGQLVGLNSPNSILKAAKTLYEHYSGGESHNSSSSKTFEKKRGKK
Protocol: as §1

[3] = molecular target: LRRK2 (Homo sapiens, UniProt Q5S007); assay: scanMAX Kinase panel (DiscoverX), % control; assay type: binding; set-up: purchased DiscoverX; conditions: <35% = active
LRRK2, sequence (Q5S007 whole entry): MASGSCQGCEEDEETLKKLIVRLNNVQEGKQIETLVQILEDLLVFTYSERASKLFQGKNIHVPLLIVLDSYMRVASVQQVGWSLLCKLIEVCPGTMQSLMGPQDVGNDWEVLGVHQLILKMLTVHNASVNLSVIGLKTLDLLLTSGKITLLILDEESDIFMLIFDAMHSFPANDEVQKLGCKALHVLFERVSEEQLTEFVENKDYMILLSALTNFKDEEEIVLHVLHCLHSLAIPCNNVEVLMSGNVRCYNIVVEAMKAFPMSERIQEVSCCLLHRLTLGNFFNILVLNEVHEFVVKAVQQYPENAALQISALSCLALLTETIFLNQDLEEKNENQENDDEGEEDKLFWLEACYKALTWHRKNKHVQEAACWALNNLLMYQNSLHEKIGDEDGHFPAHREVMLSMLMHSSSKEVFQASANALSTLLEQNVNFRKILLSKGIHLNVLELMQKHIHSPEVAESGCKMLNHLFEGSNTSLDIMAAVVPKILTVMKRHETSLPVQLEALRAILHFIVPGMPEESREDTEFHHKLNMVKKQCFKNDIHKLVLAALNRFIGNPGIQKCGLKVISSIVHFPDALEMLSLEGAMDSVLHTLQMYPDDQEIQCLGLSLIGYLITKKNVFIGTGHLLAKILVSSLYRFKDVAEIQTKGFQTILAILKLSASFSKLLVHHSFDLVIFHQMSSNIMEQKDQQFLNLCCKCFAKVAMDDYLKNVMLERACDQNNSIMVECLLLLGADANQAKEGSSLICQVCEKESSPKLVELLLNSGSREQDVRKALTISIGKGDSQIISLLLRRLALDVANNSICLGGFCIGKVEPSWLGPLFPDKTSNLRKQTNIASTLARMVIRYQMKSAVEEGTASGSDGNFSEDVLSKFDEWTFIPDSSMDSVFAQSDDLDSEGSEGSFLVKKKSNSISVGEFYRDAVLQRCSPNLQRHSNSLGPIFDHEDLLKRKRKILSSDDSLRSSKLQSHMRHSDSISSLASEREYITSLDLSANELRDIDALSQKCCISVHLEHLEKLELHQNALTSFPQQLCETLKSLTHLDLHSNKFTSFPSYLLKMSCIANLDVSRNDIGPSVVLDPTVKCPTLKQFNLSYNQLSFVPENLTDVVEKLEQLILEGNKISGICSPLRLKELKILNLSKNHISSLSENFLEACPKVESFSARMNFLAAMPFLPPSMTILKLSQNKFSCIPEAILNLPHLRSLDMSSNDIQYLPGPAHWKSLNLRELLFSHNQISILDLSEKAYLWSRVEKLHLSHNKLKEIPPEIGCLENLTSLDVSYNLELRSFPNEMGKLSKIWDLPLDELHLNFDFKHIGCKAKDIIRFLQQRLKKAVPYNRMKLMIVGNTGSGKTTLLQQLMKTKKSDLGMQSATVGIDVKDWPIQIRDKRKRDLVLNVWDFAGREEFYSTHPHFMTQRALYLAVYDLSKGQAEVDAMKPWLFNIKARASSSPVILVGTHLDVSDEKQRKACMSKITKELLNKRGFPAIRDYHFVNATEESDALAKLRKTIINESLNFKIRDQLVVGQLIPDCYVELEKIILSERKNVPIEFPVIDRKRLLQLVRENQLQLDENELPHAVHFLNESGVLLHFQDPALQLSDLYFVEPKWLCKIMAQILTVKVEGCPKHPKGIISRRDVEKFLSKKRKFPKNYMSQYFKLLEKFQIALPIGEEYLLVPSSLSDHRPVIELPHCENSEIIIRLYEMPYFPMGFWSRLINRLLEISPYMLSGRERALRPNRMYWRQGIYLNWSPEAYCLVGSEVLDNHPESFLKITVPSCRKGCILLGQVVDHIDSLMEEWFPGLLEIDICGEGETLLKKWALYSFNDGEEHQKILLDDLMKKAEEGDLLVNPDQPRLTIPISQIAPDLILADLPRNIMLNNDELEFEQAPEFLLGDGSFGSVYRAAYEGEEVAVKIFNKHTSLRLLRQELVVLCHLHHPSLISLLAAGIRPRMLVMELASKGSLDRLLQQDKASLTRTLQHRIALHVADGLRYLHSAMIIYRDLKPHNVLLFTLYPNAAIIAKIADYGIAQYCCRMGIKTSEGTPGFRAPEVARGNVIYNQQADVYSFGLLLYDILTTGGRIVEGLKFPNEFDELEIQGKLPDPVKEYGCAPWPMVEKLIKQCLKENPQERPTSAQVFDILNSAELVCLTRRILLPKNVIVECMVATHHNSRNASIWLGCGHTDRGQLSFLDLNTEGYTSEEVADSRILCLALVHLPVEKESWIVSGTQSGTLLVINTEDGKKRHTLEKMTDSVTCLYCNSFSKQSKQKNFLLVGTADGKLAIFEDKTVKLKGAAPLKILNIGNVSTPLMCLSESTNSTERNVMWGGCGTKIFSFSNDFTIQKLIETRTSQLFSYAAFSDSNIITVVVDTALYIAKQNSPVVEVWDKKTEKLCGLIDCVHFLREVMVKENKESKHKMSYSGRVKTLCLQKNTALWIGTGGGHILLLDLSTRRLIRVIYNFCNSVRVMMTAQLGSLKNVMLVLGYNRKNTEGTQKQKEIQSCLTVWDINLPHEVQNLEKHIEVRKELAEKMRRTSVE
Protocol: as §1

[4] = system: SHP-77; assay: SHP-77 cancer cell proliferation inhibition (Cell Titer-Glo); assay type: cell-based; conditions: Homo sapiens, SHP77, SHP-77 small cell lung cancer cell line, 72 hours
Summary of the method: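 GI50 comes from CellTiter-Glo luminescence, read 10 min after reagent addition at RT, following 72 h compound treatment. Eleven concentrations were used (⅓ steps, highest 10 μM final) on 2000 cells/well. MDA-MB-231 and MDA-MB-468 were grown in DMEM, SHP-77 in RPMI.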

[5] = system: IL-6; assay: IL-6 secretion inhibition in LPS-treated THP-1 cells (ELISA); assay type: cell-based; conditions: Homo sapiens, compound 0.5 μM, LPS 500 ng/ml, 24 hours, read-out: THP1/IL6 (% inhib)
Summary of the method: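 Human monocytic THP-1 cells were pre-cultured 16 h at 37° C., then treated with compound at 0.5 μM final, followed by LPS at 500 ng/ml final. After 24 h, IL-6 and TNF-α in culture supernatant were quantified by ELISA with absorbance read at 450 nm.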

[6] = molecular target: T2, LRRK2, LRRK2 (G2019S), DYRK1, CLK1 and TTK kinases (Homo sapiens, UniProt Q13627); assay: Enzyme IC50 by Kinase HotSpot service (Reaction Biology Corporation), values marked with *; assay type: biochemical; conditions: DYRK1, ATP 10 uM
T2 construct: other: DYRK1; Kinase HotSpot service (Reaction Biology), ATP 10 uM
Summary of the method: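 Radiometric-service kinase assays (Reaction Biology HotSpot protocol) run at 10 uM ATP under uniform conditions. Compounds tested as 3-fold dilution series from a top concentration of […] to give IC50.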

LRRK2 (G2019S), sequence (Q5S007 whole entry G2019S): as the sequence (Q5S007 whole entry) above, with G2019S counted along it

remaining binding at 1 µM [1] [%]	remaining binding at 1 µM [2] [%]	remaining binding at 1 µM [3] [%]	GI50 [4] [nM]	IC50 [6] [nM]	SMILES	inhibition at 0.5 µM [5] [%]
1.9	2.7	4.5	301 to 1000		CCNc1cc(Nc2ccc(S(=O)(=O)N3CCC(N4CCOCC4)CC3)c3c2OCCO3)nc2[nH]cc(C(F)(F)F)c12 [Example 96, N^4-ethyl-N^6-(8-((4-morpholonopiperidin-1-yl)sulfonyl)-2,3-dihydrobenzo [b] [1,4]dioxin-5-yl)-3-(trifluoromethyl)-1H-pyrrolo[2,3-b]pyridine-4,6-diamine]	
16	4.8	20	301 to 1000		COCCNc1cc(Nc2ccc(P3(=O)CCN(C4CC4)CC3)cc2OC)nc2[nH]cc(C(F)(F)F)c12 [Example 207, 1-cyclopropyl-4-(3-methoxy-4-((4-((2-methoxyethyl)amino)-3-(trifluoromethyl)-1H-pyrrolo[2,3-b]pyridin-6-yl)amino)phenyl)-1,4-azaphosphinane 4-oxide]	41.7
3.2	0.35	3.8	101 to 300	< 100	CNc1cc(Nc2ccc(S(=O)(=O)N3CCC(N4CCOCC4)CC3)cc2OC)nc2[nH]cc(C(F)(F)F)c12 [Example 184, N^6-(2-methoxy-4-((4-morpholinopiperidin-1-yl)sulfonyl)phenyl)-N^4-methyl-3-(trifluoromethyl)-1H-pyrrolo[2,3-b]pyridine-4,6-diamine]	
17	5.5	18			CNc1cc(Nc2ccc(P3(=O)CCN(C4CC4)CC3)cc2OC)nc2[nH]cc(C(F)(F)F)c12 [Example 205, 1-cyclopropyl-4-(3-methoxy-4-((4-(methylamino)-3-(trifluoromethyl)-1H-pyrrolo[2,3-b]pyridin-6-yl)amino)phenyl)-1,4-azaphosphinane 4-oxide]	
28	0.65	23			CCNc1cc(Nc2ccc(P3(=O)CCN(C4CC4)CC3)cc2OC)nc2[nH]cc(C(F)(F)F)c12 [Example 206, 1-cyclopropyl-4-(4-((4-(ethylamino)-3-(trifluoromethyl)-1H-pyrrolo[2,3-b]pyridin-6-yl)amino)-3-methoxyphenyl)-1,4-azaphosphinane 4-oxide]	

Second part, the compound before the results:

SMILES	remaining binding at 1 µM [1] [%]	remaining binding at 1 µM [2] [%]	remaining binding at 1 µM [3] [%]	GI50 [4] [nM]	IC50 [6] [nM]	inhibition at 0.5 µM [5] [%]
O=C(c1ccc(Nc2cc(C3CC3)c3c(C(F)(F)F)c[nH]c3n2)c2c1OCCO2)N1CCC(N2CCOCC2)CC1 [Example 221, (8-((4-cyclopropyl-3-(trifluoromethyl)-1H-pyrrolo[2,3-b]pyridin-6-yl)amino)-2,3-dihydrobenzo [b] [1,4]dioxin-5-yl)(4-morpholinopiperidin-1-yl)methanone]	5.5	4.5	14		< 100	
CCCNc1cc(Nc2ccc(C(=O)N3CCC(N4CCOCC4)CC3)c3c2OCCO3)nc2[nH]cc(C(F)(F)F)c12 [Example 162, (4-morpholinopiperidin-1-yl)(8-((4-(propylamino)-3-(trifluoromethyl)-1H-pyrrolo[2,3-b]pyridin-6-yl)amino)-2,3-dihydrobenzo[b] [1,4]dioxin-5-yl)methanone]	0.35	3.4	2.8			
CCNc1cc(Nc2ccc(C(=O)N3CCC(N4C[C@@H]5C[C@H]4CO5)CC3)c3c2OCC3)nc2[nH]cc(C(F)(F)F)c12 [Example 105, (4-((1S,4S)-2-oxa-5-azabicyclo[2.2.1]heptan-5-yl)piperidin-1-yl)(7-((4-(ethylamino)-3-(trifluoromethyl)-1H-pyrrolo[2,3-b]pyridin-6-yl)amino)-2,3-dihydrobenzofuran-4-yl)methanone]	0	2.6	0			33.2
O=C(c1ccc(Nc2cc(C3CC3)c3c(C(F)(F)F)c[nH]c3n2)c2c1CCO2)N1CC[C@@H](N2CCOCC2)C1 [Example 238, (R)-(7-((4-cyclopropyl-3-(trifluoromethyl)-1H-pyrrolo[2,3-b]pyridin-6-yl)amino)-2,3-dihydrobenzofuran-4-yl)(3-morpholinopyrrolidin-1-yl)methanone]	38	4.1	48		< 100	
CNc1cc(Nc2ccc(C(=O)N3CC[C@H](N4CCOCC4)C3)c3c2OCC3)nc2[nH]cc(C(F)(F)F)c12 [Example 217, (S)-(7-((4-(methylamino)-3-(trifluoromethyl)-1H-pyrrolo[2,3-b]pyridin-6-yl)amino)-2,3-dihydrobenzofuran-4-yl)(3-morpholinopyrrolidin-1-yl)methanone]	1	3	1			
CNc1cc(Nc2ccc(C(=O)N3CCC(N4CCOCC4)CC3)c3c2OCCO3)nc2[nH]cc(C(F)(F)F)c12 [Example 160, (8-((4-(methylamino)-3-(trifluoromethyl)-1H-pyrrolo[2,3-b]pyridin-6-yl)amino)-2,3-dihydrobenzo [b] [1,4]dioxin-5-yl)(4-morpholinopiperidin-1-yl)methanone]	0.35	3.4	2.8			
O=C(c1ccc(Nc2cc(C3CC3)c3c(C(F)(F)F)c[nH]c3n2)c2c1CCO2)N1CC[C@H](N2CCOCC2)C1 [Example 237, (S)-(7-((4-cyclopropyl-3-(trifluoromethyl)-1H-pyrrolo[2,3-b]pyridin-6-yl)amino)-2,3-dihydrobenzofuran-4-yl)(3-morpholinopyrrolidin-1-yl)methanone]	31	3.5	36		< 100	
